The values below come from patent publication US20130324533A1, “METHOD OF DETECTING RESISTANCE TO CANCER THERAPY” (NATIONAL UNIVERSITY OF SINGAPORE, priority 2010, published 2013).

For test [1], the system named is HCC2279 cells. Description: Western blot of apoptotic signaling in NSCLC cells (PARP, caspase 3 cleavage). The class given is cell-based, human. The settings on record: 0.5 μM gefitinib, […] ABT-737, 24 h, FIG. 25E. The procedure: FIG. 25E. Western blot showing levels of phospho-EGFR (p-EGFR), PAR P, and caspase 3 cleavage in cells treated for 24 h with 0.5 μM gefitinib, 2.5 μM ABT-737, or both.
Gefitinib and ABT-737 were resuspended in DMSO and kept at −20° C.
Western blotting was performed using antibodies against human BIM, CASPASE 3, cleaved CASPASE 3, PARP, phospho-EGFR (Y1068) (all from Cell Signaling Technology), and β-actin (Sigma).
In general terms: A western blot detects proteins with antibodies after separation by electrophoresis.

For test [2], the system named is K562-BIM^intron+/− and K562-BIM^intron−/− cells. Description: Western blot of genome-edited K562 clones (BIMEL, cleaved caspase 3, PARP). It is filed as cell-based, human. As to conditions: polymorphism-containing K562 cells; FIG. 16H. The procedure: Western blots were probed with antibody to BIMEL, cleaved caspase 3, PAR P, CrkL, and β-actin. […] Detection was performed with HRP-conjugated secondary antibodies that are specific to rabbit (Sigma) or mouse IgG (Santa Cruz). The membrane was visualized using the Western Lightning chemiluminescence reagent (PerkinElmer). […] In a 6-well plate, 1×10^6 cells were seeded into each well at a density of 2×10^5 cells/ml. After incubation with the appropriate drug for 48 hours, the cells were harvested for western analysis (FIG. 16).

Test [3] has as its system HCC2279 cells. The test can be described thus: Trypan blue viability assay in NSCLC cells. The class given is cell-based, human. As for the experimental part: FIG. 25F. Cell viability of PC9 and HCC2279 treated for 48 h with 0.5 μM gefitinib, 2.5 μM ABT-737, or both. Cell viability was determined by trypan blue exclusion, and plotted as a percentage of the no-drug control. (mean+/−standard error of the mean, *p=0.00004 with respect to gefitinib- and ABT-737-treated PC9 cells).
PC9 or HCC2279 cells were seeded in a 24-well plate at 5×10^5 or […] cells per wells in triplicate, and treated with DMSO (no drug), 0.5 μM gefitinib, ABT-737 or combination of gefitinib and ABT-737. Trypan blue staining was performed to assess the number of viable cells 48 hours post treatment.

Test [4] concerns CML patients. The settings on record: cited from earlier work.
For test [5], the system named is KCL22 cells. The settings on record: FIG. 15H and Table H13. As for the experimental part: Apoptosis was measured using the Annexin V-FITC/7-AAD kit (Beckman Coulter) according to the manufacturer's instructions. Briefly, treated and untreated cells were Annexin V-FITC- and 7-AAD-stained in 1× binding buffer for 15 min at room temperature and then analyzed by flow cytometry.

Test [6] has as its system KCL22 cells. The test can be described thus: Growth curve of CML cell lines cultured with imatinib (FIG. 5F). The settings on record: KCL22 cells with deletion, 1 μM imatinib.
Description: CML lines were obtained from ATCC (MEG-01 and KU812), JCRB (NCO2) and DSMZ (KCL22, K562, KYO1, JK1, BV173 and NALM1).

Read-outs that look alike come from different tables or passages of the source.

For `CN(C)CC[C@H](CSc1ccccc1)Nc1ccc(S(=O)(=O)NC(=O)c2ccc(N3CCN(Cc4ccccc4-c4ccc(Cl)cc4)CC3)cc2)cc1[N+](=O)[O-]` [ABT-737], in test [1], the “TKI-induced apoptotic signaling on addition of ABT-737” value is on record as “enhanced”. The “ability of imatinib to activate apoptosis on addition of ABT-737” value in test [2] is “enhanced”. Also, in test [3] (HCC2279, 0.5 μM gefitinib, […] ABT-737, 48 h, FIG. 25F), the “TKI-induced cell death on addition of ABT-737” value is given as “enhanced”.

With `COc1cc2ncnc(Nc3ccc(F)c(Cl)c3)c2cc1OCCCN1CCOCC1` [gefitinib], the “sensitivity of HCC2279 to gefitinib” value in test [3] (HCC2279, NSCLC cell line carrying the BIM deletion polymorphism, FIG. 25) is on record as “intrinsically resistant”.

Take `Cc1ccc(NC(=O)c2ccc(CN3CCN(C)CC3)cc2)cc1Nc1nccc(-c2cccnc2)n1` [imatinib]: the “rate of incomplete cytogenetic responses” value in test [4] (East-Asian countries) is approximately 50%; in test [4] (Europe and North America), 26%. In addition, the “sensitivity of KCL22 cells to imatinib” value in test [5] is given as “resistant”. In test [6], the “sensitivity of KCL22 cells (growth curve)” value is on record as “resistant”.
